Biological target: T1, CRTh2 receptor (Homo sapiens, UniProt Q9Y5Y4)
T1 construct: expressed in transfected cells; host or cells: CHO.K1 cells (membranes)
T1 sequence (Q9Y5Y4 1-395): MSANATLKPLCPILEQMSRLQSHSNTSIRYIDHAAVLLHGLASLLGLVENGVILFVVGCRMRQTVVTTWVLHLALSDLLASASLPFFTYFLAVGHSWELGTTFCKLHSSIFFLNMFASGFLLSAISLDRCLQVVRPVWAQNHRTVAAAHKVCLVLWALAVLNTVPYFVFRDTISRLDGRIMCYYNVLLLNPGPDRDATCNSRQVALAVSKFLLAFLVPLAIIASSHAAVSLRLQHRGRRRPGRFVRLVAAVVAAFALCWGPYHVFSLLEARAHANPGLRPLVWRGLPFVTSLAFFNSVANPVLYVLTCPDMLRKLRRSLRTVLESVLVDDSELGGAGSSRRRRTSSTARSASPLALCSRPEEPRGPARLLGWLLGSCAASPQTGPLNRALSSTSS
Test: CRTh2 GTPγS antagonism binding assay
Assay type: biochemical
Conditions: membranes from CHO.K1 cells stably overexpressing the CRTh2 receptor; PGD2 at 50 nM (EC80); [35S]-GTPγS as radioligand; read-out: GTPγ Binding
Procedure: CRTh2 GTPγS antagonism binding assay
The assay is performed using membranes obtained from CHO.K1 cells stably overexpressing the CRTh2 receptor and [^35S]-GTPγS as radioligand. Assay is performed pre-incubating 4-8 µg of membranes per well with the compound to be tested for 1 h, followed by incubation with PGD2 at 50 nM (EC80), 0.1 nM [^35S]-GTPγS in incubation buffer (20 mM HEPES, 10 mM MgCl2, 100 mM NaCl, 10 µM GDP, 10 µg/ml Saponine and 0.2% BSA) for 2 h at room temperature. The reaction is terminated by filtering in GF/C plates pre-treated with 20 mM HEPES, 10 mM MgCl2, 100 mM NaCl and washing 6 times with wash buffer (20 mM NaH2PO4, 20 mM Na2HPO4). After washing, plates are dried and scintillation buffer Optiphase added. The radioactivity retained in the filter is counted using a Microbeta liquid scintillation counter.

Row | SMILES | IC50 [nM]
1 | Cc1c(Cc2ccccc2S(=O)(=O)c2ccccc2)c2c(n1CC(=O)O)CCNC2=O [Example 2, {2-Methyl-4-oxo-3-[2-(phenylsulfonyl)benzyl]-4,5,6,7-tetrahydro-1H-pyrrolo[3,2-c]pyridin-1-yl}acetic acid] | 4.6
2 | Cc1c(Cc2ccc(C(F)(F)F)cc2S(=O)(=O)c2ccccc2)c2c(n1CC(=O)O)CCNC2=O [Example 10, {2-Methyl-4-oxo-3-[2-(phenylsulfonyl)-4-(trifluoromethyl)benzyl]-4,5,6,7-tetrahydro-1H-pyrrolo[3,2-c]pyridin-1-yl}acetic acid] | 13
3 | Cc1c(Cc2ccccc2S(=O)(=O)c2ccc(Cl)cc2)c2c(n1CC(=O)O)CCNC2=O [Example 14, (3-{2-[(4-Chlorophenyl)sulfonyl]benzyl}-2-methyl-4-oxo-4,5,6,7-tetrahydro-1H-pyrrolo[3,2-c]pyridin-1-yl)acetic acid] | 8.4
4 | Cc1c(Cc2ccccc2S(=O)(=O)c2ccc(OC(F)(F)F)cc2)c2c(n1CC(=O)O)CCNC2=O [Example 16, [2-Methyl-4-oxo-3-(2-{[4-(trifluoromethoxy)phenyl]sulfonyl}benzyl)-4,5,6,7-tetrahydro-1H-pyrrolo[3,2-c]pyridin-1-yl]acetic acid] | 6.9
5 | Cc1c(Cc2ccccc2S(=O)(=O)c2ccccc2)c2c(n1[C@H](C)C(=O)O)CCNC2=O [Example 20, (2R)-2-{2-Methyl-4-oxo-3-[2-(phenylsulfonyl)benzyl]-4,5,6,7-tetrahydro-1H-pyrrolo [3,2-c]pyridin-1-yl}propanoic acid] | 9.2
6 | COc1cccc(Cc2c3c(n(CC(=O)O)c2C)CCNC3=O)c1S(=O)(=O)c1ccccc1 [Example 21, {3-[3-Methoxy-2-(phenylsulfonyl)benzyl]-2-methyl-4-oxo-4,5,6,7-tetrahydro-1H-pyrrolo[3,2-c]pyridin-1-yl}acetic acid] | 20
7 | Cc1c(Cc2ccccc2S(=O)(=O)C2CCCCC2)c2c(n1CC(=O)O)CCNC2=O [Example 23, {3-[2-(Cyclohexylsulfonyl)benzyl]-2-methyl-4-oxo-4,5,6,7-tetrahydro-1H-pyrrolo[3,2-c]pyridin-1-yl}acetic acid] | 27
8 | Cc1c(Cc2ccccc2S(=O)(=O)N2CCOCC2)c2c(n1CC(=O)O)CCNC2=O [Example 24, {2-Methyl-3-[2-(morpholin-4-ylsulfonyl)benzyl]-4-oxo-4,5,6,7-tetrahydro-1H-pyrrolo[3,2-c]pyridin-1-yl}acetic acid] | 20
9 | COC(=O)c1ccc(Cc2c3c(n(CC(=O)O)c2C)CCNC3=O)c(S(=O)(=O)c2ccccc2)c1 [Example 28, {3-[4-(Methoxycarbonyl)-2-(phenylsulfonyl)benzyl]-2-methyl-4-oxo-4,5,6,7-tetrahydro-1H-pyrrolo[3,2-c]pyridin-1-yl}acetic acid] | 11
10 | Cc1c(Cc2ccc(C(=O)O)cc2S(=O)(=O)c2ccccc2)c2c(n1CC(=O)O)CCNC2=O [Example 29, 4-{[1-(Carboxymethyl)-2-methyl-4-oxo-4,5,6,7-tetrahydro-1H-pyrrolo[3,2-c]pyridin-3-yl]methyl}-3-(phenylsulfonyl)benzoic acid] | 18
11 | CNC(=O)c1ccc(Cc2c3c(n(CC(=O)O)c2C)CCNC3=O)c(S(=O)(=O)c2ccccc2)c1 [Example 31, {2-Methyl-3-[4-[(methylamino)carbonyl]-2-(phenylsulfonyl)benzyl]-4-oxo-4,5,6,7-tetrahydro-1H-pyrrolo[3,2-c]pyridin-1-yl}acetic acid] | 9.5
12 | COc1cccc(S(=O)(=O)c2ccccc2Cc2c3c(n(CC(=O)O)c2C)CCNC3=O)c1 [Example 34, (3-{2-[(3-Methoxyphenyl)sulfonyl]benzyl}-2-methyl-4-oxo-4,5,6,7-tetrahydro-1H-pyrrolo[3,2-c]pyridin-1-yl)acetic acid] | 12

Continued, values first:

Row | IC50 [nM] | SMILES
13 | 3.2 | Cc1c(Cc2ccccc2S(=O)(=O)c2ccc(F)cc2)c2c(n1CC(=O)O)CCNC2=O [Example 4, (3-{2-[(4-Fluorophenyl)sulfonyl]benzyl}-2-methyl-4-oxo-4,5,6,7-tetrahydro-1H-pyrrolo[3,2-c]pyridin-1-yl)acetic acid]
14 | 3.6 | COc1ccc(S(=O)(=O)c2ccccc2)c(Cc2c3c(n(CC(=O)O)c2C)CCNC3=O)c1 [Example 6, {3-[5-Methoxy-2-(phenylsulfonyl)benzyl]-2-methyl-4-oxo-4,5,6,7-tetrahydro-1H-pyrrolo[3,2-c]pyridin-1-yl}acetic acid]
15 | 4 | Cc1c(Cc2ccccc2S(=O)(=O)c2cccc(Cl)c2)c2c(n1CC(=O)O)CCNC2=O [Example 8, (3-{2-[(3-Chlorophenyl)sulfonyl]benzyl}-2-methyl-4-oxo-4,5,6,7-tetrahydro-1H-pyrrolo[3,2-c]pyridin-1-yl)acetic acid]
16 | 6.2 | Cc1c(Cc2ccccc2S(=O)(=O)c2cccc(F)c2)c2c(n1CC(=O)O)CCNC2=O [Example 12, (3-{2-[(3-Fluorophenyl)sulfonyl]benzyl}-2-methyl-4-oxo-4,5,6,7-tetrahydro-1H-pyrrolo[3,2-c]pyridin-1-yl)acetic acid]
17 | 3.9 | COc1ccc(S(=O)(=O)c2ccccc2Cc2c3c(n(CC(=O)O)c2C)CCNC3=O)cc1 [Example 15, (3-{2-[(4-Methoxyphenyl)sulfonyl]benzyl}-2-methyl-4-oxo-4,5,6,7-tetrahydro-1H-pyrrolo[3,2-c]pyridin-1-yl)acetic acid]
18 | 3.6 | Cc1c(Cc2ccccc2S(=O)(=O)c2ccccc2F)c2c(n1CC(=O)O)CCNC2=O [Example 17, (3-{2-[(2-Fluorophenyl)sulfonyl]benzyl}-2-methyl-4-oxo-4,5,6,7-tetrahydro-1H-pyrrolo[3,2-c]pyridin-1-yl)acetic acid]
19 | 5.4 | Cc1c(Cc2ccccc2S(=O)(=O)c2ccccc2)c2c(n1CC(=O)O)CCN(C)C2=O [Example 27, {2,5-Dimethyl-4-oxo-3-[2-(phenylsulfonyl)benzyl]-4,5,6,7-tetrahydro-1H-pyrrolo[3,2-c]pyridin-1-yl}acetic acid]
20 | 1.5 | Cc1c(Cc2ccccc2S(=O)(=O)c2ccccc2)c2c(n1CC(=O)O)CCN(Cc1ccccc1)C2=O [Example 36, {5-Benzyl-2-methyl-4-oxo-3-[2-(phenylsulfonyl)benzyl]-4,5,6,7-tetrahydro-1H-pyrrolo[3,2-c]pyridin-1-yl}acetic acid]
21 | 3.7 | Cc1c(Cc2cc(F)ccc2S(=O)(=O)c2ccccc2)c2c(n1CC(=O)O)CCNC2=O [Example 37, {3-[5-Fluoro-2-(phenylsulfonyl)benzyl]-2-methyl-4-oxo-4,5,6,7-tetrahydro-1H-pyrrolo[3,2-c]pyridin-1-yl}acetic acid]
22 | 2.9 | Cc1c(Cc2ccc(S(=O)(=O)Cc3ccccc3)cc2)c2c(n1CC(=O)O)CCNC2=O [Example 39, {3-[4-(Benzylsulfonyl)benzyl]-2-methyl-4-oxo-4,5,6,7-tetrahydro-1H-pyrrolo[3,2-c]pyridin-1-yl}acetic acid]
23 | 3.9 | Cc1c(Cc2cc(Br)ccc2S(=O)(=O)c2ccccc2)c2c(n1CC(=O)O)CCNC2=O [Example 42, {3-[5-Bromo-2-(phenylsulfonyl)benzyl]-2-methyl-4-oxo-4,5,6,7-tetrahydro-1H-pyrrolo[3,2-c]pyridin-1-yl}acetic acid]
24 | 5.9 | Cc1c(Cc2cccn2S(=O)(=O)c2ccccc2)c2c(n1CC(=O)O)CCNC2=O [Example 44, (2-Methyl-4-oxo-3-{[1-(phenylsulfonyl)-1H-pyrrol-2-yl]methyl}-4,5,6,7-tetrahydro-1 H-pyrrolo[3,2-c]pyridin-1-yl)acetic acid]

— patent EP2526945A1, “New CRTH2 Antagonists” (Almirall, S.A., priority 2011, dated 2012)
